Measured values from ChEMBL document CHEMBL1201862, “PubChem BioAssay data set” (2004).
The source made the active and inactive calls.

How the values were obtained:
[1] = tested on: CHO; assay: cytotoxicity in TLR9-MyD88 CHO cells, dose response, cytotoxicity control for TLR9-MyD88 binding inhibitor project, cell-based, luminescence (AID 588339); type: functional, hamster; details: Cricetulus griseus;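 further: CHO cells stably coexpressing TLR9 and MyD88 fusions from primary screen; compound exposure lasted 48 hours before viability readout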
[2] = molecular target: Beta Lactamase (Pseudomonas aeruginosa, UniProt Q932Y6); assay: beta-lactamase reporter inhibitor potency, dose response, artefact control for TLR9-MyD88 binding inhibitor project, BLA reporter cells, FRET fluorescence (AID 588341); type: cell-based;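 further: cell based assay in CHO-K1 cells stably expressing beta-lactamase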
[3] = cytotoxicity in HMLE control line with eGFP shRNA, dose response, counter-screen for HMLE_sh_ECad selective toxicity project, cell-based, HMLE_sh_eGFP, luminescence (AID 463074); type: functional, Homo sapiens;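 further: HMLE human mammary epithelial cells expressing control shRNA against eGFP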
[4] = inhibitors of intracellular T. cruzi replication, confirmation, NIH3T3 host cells, beta-gal luminescence (AID 2044); type: functional, cell-based;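 further: intracellular parasites grown in NIH/3T3 mouse fibroblasts as host cells; luminescent beta-galactosidase reporter signal from transgenic T. cruzi replicating inside host cells; inhibitors lower the luminescence signal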
[5] = Luminescence Cell-Based Dose Retest to Confirm Inhibitors of Cancer Stem Cells. [Related pubchem assays (depositor defined):AID2717, AID2721]; type: functional; details: Homo sapiens
[6] = cytotoxicity toward DRD oncogenic fibroblasts, dose response, cell-based, non-viral oncogenic, luminescence (AID 1934); type: functional; details: Homo sapiens
[7] = tested on: BJ; assay: cytotoxicity toward BJ-TERT fibroblasts, dose response, cell-based, RAS-independent, luminescence (AID 1933); type: functional; details: Homo sapiens
[8] = cytotoxicity toward NIH3T3 fibroblasts, dose response, counter-screen, cell-based, ATP luminescence, mouse fibroblasts (AID 2010); type: functional;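 further: cells exposed to compound for about 90 hours before reading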
[9] = tested on: BJ; assay: cytotoxicity toward BJ-TERT-LT-ST fibroblasts, dose response, cell-based, RAS-independent, luminescence (AID 1935); type: functional; details: Homo sapiens;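 further: BJ fibroblasts immortalized with TERT plus LT and ST oncogenes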
[10] = tested on: BJ; assay: cells; type: functional, cell-based; details: Homo sapiens
[11] = molecular target: UDP-galactopyranose mutase (Mycobacterium tuberculosis, UniProt P9WIQ1); assay: Inhibitors of Mycobacterium tuberculosis UDP-galactopyranose mutase (UGM) enzyme Measured in Biochemical System Using Plate Reader - 2105-02_Inhibitor_Dose_CherryPick_Activity. [Related pubchem assays (depositor defined):AID504439]
[12] = inhibitors of Trypanosoma cruzi host-cell infection, confirmation, beta-gal luminescence, NIH3T3 host cells (AID 2630); type: functional, cell-based; details: Mus musculus
[13] = tested on: Candida albicans; assay: growth inhibition of azole-resistant C. albicans, dose response, CaCi-8 strain, Alamar Blue, dry powder, set 2 (AID 488909); type: functional, organism-based
[14] = tested on: Candida albicans; assay: growth inhibition of resistant C. albicans, dose response, CaCi-8 strain, fluconazole, dry powder, set 4 (AID 488950); type: functional, organism-based
[15] = tested on: HEK293; assay: cytotoxicity in HEK293T NF-kB-Luc cells, SAR follow-up, cytotoxicity control for NF-kB activator project, cell-based, resazurin fluorescence (AID 493251); type: functional; details: Homo sapiens
[16] = molecular target: T1, sn-1-specific diacylglycerol lipase ABHD11 (Mus musculus, UniProt Q8K4F5); assay: Late stage assay provider results from the probe development effort to identify inhibitors of LYPLA1: fluorescence-based cell-based gel-based Activity-Based Protein Profiling (ABPP) IC50 for anti-target ABHD11. [Related pubchem assays (depositor defined):AID2174, AID2177, AID2202, AID2203, AID2232, AID2233, AID493105, AID493108, AID493109, AID493110, AID493111, AID493154, AID493161, AID504892]; type: functional
[17] = molecular target: T1, sn-1-specific diacylglycerol lipase ABHD11; assay: Late stage assay provider results from the probe development effort to identify inhibitors of LYPLA1 and LYPLA2: Gel-based Activity-Based Protein Profiling (ABPP) IC50 for off-target ABHD11. [Related pubchem assays (depositor defined):AID2174, AID2202, AID2203, AID2233, AID504482, AID504498, AID504505, AID504507, AID504510, AID504520, AID504522, AID504892]; type: functional
[18] = molecular target: Voltage-gated inwardly rectifying potassium channel KCNH2 (Homo sapiens, UniProt Q12809); details: Potency;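 further: confirmatory quantitative high-throughput screen measuring inhibition of hERG channel activity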
Sequence of Voltage-gated inwardly rectifying potassium channel KCNH2 (Q12809 whole entry): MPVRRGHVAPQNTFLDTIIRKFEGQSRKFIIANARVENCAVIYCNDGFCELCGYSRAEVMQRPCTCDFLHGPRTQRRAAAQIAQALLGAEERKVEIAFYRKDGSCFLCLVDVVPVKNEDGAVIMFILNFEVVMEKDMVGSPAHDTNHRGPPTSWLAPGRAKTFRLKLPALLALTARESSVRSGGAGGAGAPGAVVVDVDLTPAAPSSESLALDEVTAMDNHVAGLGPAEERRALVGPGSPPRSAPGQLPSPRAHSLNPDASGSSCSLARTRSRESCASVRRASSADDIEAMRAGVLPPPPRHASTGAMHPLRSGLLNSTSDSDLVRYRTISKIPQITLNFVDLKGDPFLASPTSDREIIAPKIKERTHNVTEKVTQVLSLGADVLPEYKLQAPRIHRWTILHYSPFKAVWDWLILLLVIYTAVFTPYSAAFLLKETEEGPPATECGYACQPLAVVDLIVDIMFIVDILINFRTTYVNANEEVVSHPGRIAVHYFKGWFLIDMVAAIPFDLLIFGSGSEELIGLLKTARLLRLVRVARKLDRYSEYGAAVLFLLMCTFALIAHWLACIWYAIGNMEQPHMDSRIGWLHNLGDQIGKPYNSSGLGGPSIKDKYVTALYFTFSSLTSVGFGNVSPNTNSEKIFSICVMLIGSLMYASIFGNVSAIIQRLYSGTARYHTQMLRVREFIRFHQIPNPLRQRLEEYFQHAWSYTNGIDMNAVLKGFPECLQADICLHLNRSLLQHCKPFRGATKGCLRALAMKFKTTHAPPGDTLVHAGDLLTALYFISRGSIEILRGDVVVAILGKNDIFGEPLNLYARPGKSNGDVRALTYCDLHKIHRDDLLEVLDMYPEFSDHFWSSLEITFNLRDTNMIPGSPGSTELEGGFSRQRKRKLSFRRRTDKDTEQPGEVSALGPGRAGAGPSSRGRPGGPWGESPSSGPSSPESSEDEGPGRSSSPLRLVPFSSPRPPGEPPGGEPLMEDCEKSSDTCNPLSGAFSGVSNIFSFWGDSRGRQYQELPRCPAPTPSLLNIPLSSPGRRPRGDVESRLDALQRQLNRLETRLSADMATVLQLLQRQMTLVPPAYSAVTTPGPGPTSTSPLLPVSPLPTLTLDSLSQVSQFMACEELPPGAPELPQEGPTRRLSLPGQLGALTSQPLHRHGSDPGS

T1 sequence (Q8K4F5 whole entry): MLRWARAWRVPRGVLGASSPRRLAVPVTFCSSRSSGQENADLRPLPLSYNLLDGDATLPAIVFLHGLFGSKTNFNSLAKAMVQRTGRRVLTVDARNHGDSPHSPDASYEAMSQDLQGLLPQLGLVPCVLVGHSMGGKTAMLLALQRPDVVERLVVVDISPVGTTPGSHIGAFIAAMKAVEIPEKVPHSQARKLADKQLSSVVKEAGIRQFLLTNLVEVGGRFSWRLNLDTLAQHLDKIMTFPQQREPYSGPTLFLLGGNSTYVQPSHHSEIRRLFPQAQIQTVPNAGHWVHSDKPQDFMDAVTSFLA
Sequence of Beta Lactamase (Q932Y6 whole entry): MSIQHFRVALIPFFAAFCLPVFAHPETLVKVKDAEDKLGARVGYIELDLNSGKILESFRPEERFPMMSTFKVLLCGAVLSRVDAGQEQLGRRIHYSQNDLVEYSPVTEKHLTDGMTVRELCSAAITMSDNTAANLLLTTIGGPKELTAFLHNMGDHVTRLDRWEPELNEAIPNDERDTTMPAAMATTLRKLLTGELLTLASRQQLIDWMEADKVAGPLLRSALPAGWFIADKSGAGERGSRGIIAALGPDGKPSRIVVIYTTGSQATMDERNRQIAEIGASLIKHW
Sequence of UDP-galactopyranose mutase (P9WIQ1 whole entry): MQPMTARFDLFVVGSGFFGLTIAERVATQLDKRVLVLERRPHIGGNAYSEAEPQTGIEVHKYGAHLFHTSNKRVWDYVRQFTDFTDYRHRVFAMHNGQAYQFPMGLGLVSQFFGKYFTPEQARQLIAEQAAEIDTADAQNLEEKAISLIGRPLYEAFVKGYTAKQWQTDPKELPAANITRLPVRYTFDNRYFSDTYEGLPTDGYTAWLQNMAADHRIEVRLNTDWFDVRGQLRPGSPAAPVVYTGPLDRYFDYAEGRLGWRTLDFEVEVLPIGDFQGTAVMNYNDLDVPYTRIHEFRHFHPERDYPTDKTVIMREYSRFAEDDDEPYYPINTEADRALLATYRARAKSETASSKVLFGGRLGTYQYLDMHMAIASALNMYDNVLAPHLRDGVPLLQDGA

Cc1nn(C)c(C)c1N1C(=O)c2cccc3c(Br)ccc(c23)C1=O
IC50 [1]: 7.3 µM (active) | IC50 [2]: 5.72 µM (active)

CN1CCN(c2ccc(C(=O)c3ccccc3)cc2[N+](=O)[O-])CC1
AC50 [3]: 77.6 µM (active) | EC50 [4]: 0.399 µM (active) | AC50 [5]: 2.09 µM (active) | EC50 [6]: > 150 µM (not active) | EC50 [7]: > 150 µM (not active) | EC50 [8]: > 60 µM (not active) | EC50 [9]: > 150 µM (inconclusive) | EC50 [10]: > 150 µM (not active)

O=C(COC(=O)c1ccc([N+](=O)[O-])o1)NC1CCCC1
AC50 [11]: > 500 µM (inactive)

Cc1ccc(NC(=O)CCC(=O)N/N=C/c2ccc(C)o2)c(C)c1
EC50 [12]: 195 µM (inactive)

O=C(c1ccc(Cl)cc1)N1CCCN(c2ccnc3cc(Cl)ccc23)CC1
AC50 [13]: < 0.195 µM (active) | AC50 [14]: 12.7 µM (active)

Cc1oc(-c2ccccc2)nc1CSCC(=O)NCc1ccco1
IC50 [15]: > 80 µM (inactive)

CCC1CCCCN1C(=O)n1ncc(C(O)(c2ccccc2)c2ccccc2)n1 (stereo not drawn)
IC50 [16]: 0.000678 µM (active) | IC50 [17]: 0.015 µM (active)

C(=C/c1ccccc1)/c1ccccc1
AC50 [18]: 22.4 µM (inconclusive)
